# Reference: patent US20250381165A1, “Method of Use for Benzofuran Compounds” (Tampa Bay Research Institute, Inc., priority 2024, published 2025)
# Legend:
# [1] = In vivo toxicity after gavage, iv or im injection
# Method: Six- to ten-week-old male and female C57BL/6NCrl mice (cat. no. 027, Charles River Laboratories, Wilmington MA) were used for all animal studies. The mice were maintained in accord with the NIH Guide for the Care and Use of Laboratory Animals. Experimental procedures were performed in accord with research protocols approved by the Tampa Bay Research Institute's Institutional Animal Care and Use Committee. Mice were maintained in an INOVIVE individually ventilated cage system with 3 mice per cage containing 100% virgin wood pulp bedding (Harlan Teklad™, Harlan Sprague Dawley Inc., Indianapolis, IA; cat. no. 7099). Water and food (Harland Teklad™; cat. no. 8640) were available ad libitum. The mice were maintained on a cycle of 12 h of light and 12 h of dark in an environment with a temperature of 74-76° […]. and 40-60% humidity. All cages underwent 40 air changes hourly in the negative pressure mode, in accordance with manufacturer's recommendations. Both the intake and exhaust air from the system were filtered through HEPA filters to maintain a clean environment. […]
# Mice were gavaged with BzFβ at doses ranging from 25 mg/kg body to 100 mg/kg body weight, injected intravenously (iv) with 50 μg BzFβ or injected intramuscularly with BzFβ at 25 to 40 mg/kg body weight. For two weeks post-treatment, water intake and weight were monitored. […]
# [2] = tested on: DC2.4 cells presenting SIINFEKL to B3Z CD8+ T cell hybridoma; test: B3Z activation by SIINFEKL-pulsed DC2.4 (CPRG β-gal assay); assay type: cell-based, murine
# Method: DC2.4 cells (2.5×10^4 cells/well) were seeded at 100 μL/well in 96 well tissue culture white sided/white bottom plate and incubated overnight to allow for cell adherence. 37° C. in an atmosphere containing 5% CO2 and 95% humidity. Following pre-treatment of the DC2.4 cells (1-24 h) with escalating doses of the test molecules, the cells were washed, pulsed with 0.5 nM of the MHC class I H-2Kb peptide, SIINFEKL, for 1 h, and then co-cultured with the CD8+ T cell hybridoma, B3Z.
# The level of B3Z cell activation and the effects of the various test molecules on B3Z activation were quantified in cell lysates using the β-gal chromogenic substrate, CPRG. The media was removed and 100 μL of 250 μM CPRG reconstituted in the lysis buffer (1×DPBS, 0.2% v/v saponin, 20 mM magnesium chloride) was added directly to each well. Cells were maintained at 37° C. prior to measurement. The absorbance at 560 nm (700 nm for background) was intermittently monitored using a BioTek Synergy HTX multimode microplate reader (Winooski, VT) to detect β-gal activity. CPRG lysis buffer and B3Z cells only served as the negative controls. All treatments were performed in triplicate and all experiments were repeated a minimum of three times.
# Activation of B3Z T cell hybridoma cells was assessed following their exposure to various MHC class I H-2K^b positive cell lines presenting the SIINFEKL peptide. B3Z are a CD8+ SIINFEKL peptide specific T-cell hybridoma expressing a beta-galactosidase (β-gal) reporter gene driven by NF-AT elements on the interleukin 2 (IL-2) promoter. […] Activation of B3Z leads to production of β-gal whose presence can be quantified using the optimized detection assay described by Jendresen et al. (Jendresen, et al., An improved CPRG colorimetric ligand-receptor signal transduction assay based on beta-galactosidase activity in mammalian BWZ-reporter cells. J Pharmacol Toxicol Methods. 2018 March-April; 90:67-75).
# To stimulate β-gal production in the B3Z, the H-2Kb murine cell lines, DC2.4, B16F10, and E.G7-OVA, or freshly isolated murine splenocytes, were plated at a density of 2.5 or 5×10^4 cells/well (100 μL/well in 96 well plates) and cultured overnight at 37° C. in an atmosphere containing 5% CO2 and 95% humidity. The cells were washed with DPBS and then treated for 1-24 h with the indicated concentrations of BzFβ suspended in complete media. Vehicle controls were always included. […]
# To detect activation of the B3Z cells, the media was removed and 100 μL of 250 µM CPRG reconstituted in the lysis buffer (1×DPBS, 0.2% v/v saponin, 20 mM magnesium chloride) was added directly to each well. […] The absorbance at 560 nm (700 nm for background) was intermittently monitored using a BioTek Synergy HTX multimode microplate reader (Winooski, VT) to detect β-gal activity. […]
structure (smiles),measurement,setting,value
"O=C(O)/C=C/c1ccc2occc2c1 [BzFβ, (2E)-3-(1-benzofuran-5-yl)prop-2-enoic acid]",in vivo toxicity,[1]; at the doses tested,non-toxic
same,body and organ weights,"[1]; gavage 25-100 mg/kg, iv 50 μg, im 25-40 mg/kg, two weeks",no differences were measured
same,B3Z response versus peptide pulsed DC2.4 alone,"[2]; co-treatment 1 h, 25 μg/mL BzFβ, 15 pM to 1 nM SIINFEKL, 19 h coculture",significantly greater
same,time to significantly enhanced B3Z activation,[2]; peptide pulsed DC2.4,5 min
